According to patent US10517889B2, “Modulators of SMAD7 expression” (Ionis Pharmaceuticals, Inc., priority 2017, dated 2019):
Strand notation (5' to 3'): a small letter for the sugar, then the base; units joined by * are phosphorothioate-linked, units joined directly phosphodiester-linked; [ ] holds rarer units or linkages, { } end groups; capitals alone tell only the bases. k = constrained ethyl (cEt); [5mC] = 5-methylcytosine; d = 2'-deoxy (DNA)

The substances below were run on human SMAD7 mRNA (assay: Antisense inhibition of human SMAD7 mRNA expression in Hep3B cells by 3-10-3 cEt gapmers, 10,000 nM, electroporation (Example 2)). Conditions: Hep3B cells, 10,000 nM antisense oligonucleotide, electroporation, approximately 24 hours, RT-PCR primer probe set RTS5062, relative to untreated control cells.
Assay type: cell-based
In short: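 Hep3B cells (20,000/well) were electroporated with 10,000 nM 3-10-3 cEt gapmer (16-mer, phosphorothioate, 5-methylcytosines) and harvested after about 24 h. SMAD7 mRNA quantified by RT-qPCR with primer probe set RTS5062, normalized to total RNA by RiboGreen; percent inhibition relative to untreated cells.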

Substance | % Inhibition [%]
799857 (kA*kG*kA*dA*d[5mC]*dT*dG*dA*dA*dA*dG*d[5mC]*dG*kG*k[5mC]*kG; antisense) [compound 799857] | 31

Same assay, conditions: Hep3B cells, electroporation with 10,000 nM antisense oligonucleotide, approximately 24 hours, RTS5062, percent inhibition of SMAD7 mRNA relative to untreated control cells

Substance | % Inhibition [%]
799710 (antisense kG*kT*k[5mC]*dA*dA*dA*d[5mC]*dT*dT*dG*dT*dG*dG*kT*kA*kA) [compound 799710] | 48
799627 (k[5mC]*kA*k[5mC]*dA*dA*dG*d[5mC]*dT*dT*dG*d[5mC]*dA*d[5mC]*k[5mC]*k[5mC]*kA; antisense) [compound 799627] | 48
799569 (k[5mC]*kT*k[5mC]*dT*dA*dG*dG*dT*d[5mC]*d[5mC]*d[5mC]*dT*d[5mC]*kT*kT*kT; antisense) [compound 799569] | 24
799749 (antisense kT*kG*k[5mC]*dT*dT*dG*dG*d[5mC]*d[5mC]*dT*dT*dA*d[5mC]*k[5mC]*kA*kT) [compound 799749] | 17

Same assay, conditions: Hep3B cells, electroporation with 10,000 nM antisense oligonucleotide, approximately 24 hours, SMAD7 mRNA by RT-PCR (RTS5062), relative to untreated control cells

Substance | % Inhibition [%]
772573 (antisense kA*kG*k[5mC]*dA*d[5mC]*dA*d[5mC]*d[5mC]*dA*dG*d[5mC]*dT*d[5mC]*kG*kG*kG) [compound 772573] | 57
798868 (kA*k[5mC]*k[5mC]*dT*dT*dG*dT*dG*dT*dA*d[5mC]*d[5mC]*dA*kA*k[5mC]*kA; antisense) [compound 798868] | 48
830158 (antisense kA*kA*kT*dT*dG*dA*dG*dA*dA*d[5mC]*dT*dG*dT*kG*k[5mC]*k[5mC]) [compound 830158] | 43
830060 (kT*kA*k[5mC]*d[5mC]*dA*d[5mC]*d[5mC]*d[5mC]*d[5mC]*dT*dG*dT*dG*kA*kA*kG; antisense) [compound 830060] | 8
830082 (kG*kG*kT*dG*dT*dA*dT*dA*d[5mC]*d[5mC]*d[5mC]*dT*dG*k[5mC]*kA*k[5mC]; antisense) [compound 830082] | 34
800101 (antisense kA*kA*k[5mC]*dA*dA*dA*dG*d[5mC]*d[5mC]*dT*d[5mC]*dT*dT*k[5mC]*kT*k[5mC]) [compound 800101] | 0
830161 (antisense kA*kG*kG*dT*dG*dA*dA*dA*dG*dT*dT*dA*dT*k[5mC]*kA*k[5mC]) [compound 830161] | 13
798678 (antisense k[5mC]*kG*k[5mC]*dA*d[5mC]*dA*d[5mC]*d[5mC]*dA*dT*dG*dA*dA*kG*kA*kA) [compound 798678] | 45
799969 (kT*kT*kA*dG*dA*dG*dT*dG*dA*dG*dT*dT*d[5mC]*k[5mC]*kT*k[5mC]; antisense) [compound 799969] | 46
799387 (antisense k[5mC]*k[5mC]*kA*dG*dG*dA*dG*d[5mC]*dT*dA*dA*dA*dT*kG*kG*kT) [compound 799387] | 22
830085 (k[5mC]*kA*kG*dG*dA*dT*dA*d[5mC]*dA*d[5mC]*dT*dT*dA*kA*kT*k[5mC]; antisense) [compound 830085] | 27
798741 (antisense k[5mC]*kT*kT*d[5mC]*dA*dG*dT*dT*dT*d[5mC]*dT*dT*dG*kA*kG*k[5mC]) [compound 798741] | 17
798881 (k[5mC]*k[5mC]*kG*dT*d[5mC]*d[5mC]*dA*d[5mC]*dG*dG*d[5mC]*dT*dG*k[5mC]*kT*kG; antisense) [compound 798881] | 14
830193 (antisense k[5mC]*kT*kT*dT*dT*d[5mC]*d[5mC]*dG*dG*dT*dA*dT*dT*kT*kT*k[5mC]) [compound 830193] | 35

Same assay, conditions: Hep3B cells, electroporation with 10,000 nM antisense oligonucleotide, approximately 24 hours, primer probe set RTS5062, relative to untreated control cells

Substance | % inhibition of SMAD7 mRNA expression [%] | % Inhibition [%]
799151 (antisense kA*kG*k[5mC]*d[5mC]*dT*dA*dG*dG*dA*dT*dG*dG*dT*kA*k[5mC]*k[5mC]) [compound 799151] | 39 | –
799213 (kT*kG*kT*dT*dT*dA*dT*dA*d[5mC]*dA*d[5mC]*dA*dT*kT*kG*k[5mC]; antisense) [compound 799213] | 42 | –
798962 (antisense kT*kT*k[5mC]*d[5mC]*dA*dA*dA*dA*dA*dA*dA*d[5mC]*d[5mC]*k[5mC]*k[5mC]*k[5mC]) [compound 798962] | – | 2
798999 (antisense k[5mC]*k[5mC]*kG*d[5mC]*dA*d[5mC]*dA*d[5mC]*dT*d[5mC]*dA*d[5mC]*dA*k[5mC]*kT*k[5mC]) [compound 798999] | – | 17
799171 (antisense kT*kG*k[5mC]*dT*d[5mC]*dA*dT*dT*dG*dA*dG*d[5mC]*dT*kA*kA*kG) [compound 799171] | 30 | –
799359 (kT*kG*kT*dT*dA*dA*dA*dG*d[5mC]*dT*dG*dA*dG*k[5mC]*k[5mC]*k[5mC]; antisense) [compound 799359] | 22 | –
798728 (antisense k[5mC]*kT*kT*dT*dG*dG*d[5mC]*dA*d[5mC]*d[5mC]*dT*d[5mC]*dG*k[5mC]*kA*k[5mC]) [compound 798728] | 41 | –
798773 (kT*kG*kA*d[5mC]*dT*dT*d[5mC]*d[5mC]*dG*dA*dG*dG*dA*kA*kT*kG; antisense) [compound 798773] | 40 | –
799227 (kG*kA*kA*dA*dA*dA*dA*dA*d[5mC]*dA*d[5mC]*d[5mC]*dA*kA*kT*k[5mC]; antisense) [compound 799227] | – | 2
799210 (kT*kA*kA*dA*dT*dA*dA*dT*dG*dA*dT*dG*d[5mC]*kT*kT*kA; antisense) [compound 799210] | – | 10
799204 (antisense k[5mC]*kT*k[5mC]*dA*dG*dG*dT*dT*dT*dT*dT*dT*dT*kT*k[5mC]*kA) [compound 799204] | 36 | –
799238 (kA*kA*kT*dG*dG*dA*dA*d[5mC]*dA*dT*dA*dA*dA*k[5mC]*kT*k[5mC]; antisense) [compound 799238] | – | 17
798705 (antisense kG*kG*k[5mC]*dT*dG*dT*d[5mC]*d[5mC]*dG*dT*d[5mC]*dG*d[5mC]*k[5mC]*k[5mC]*k[5mC]) [compound 798705] | 41 | –
799105 (antisense k[5mC]*kT*kA*dA*dG*dT*d[5mC]*d[5mC]*dG*dG*dG*dA*dA*kA*kA*kA) [compound 799105] | 12 | –
798723 (antisense k[5mC]*kG*k[5mC]*d[5mC]*dT*dT*dG*d[5mC]*d[5mC]*d[5mC]*dA*dG*dG*k[5mC]*kA*kG) [compound 798723] | 0 | –
798727 (antisense kT*kG*kG*d[5mC]*dA*d[5mC]*d[5mC]*dT*d[5mC]*dG*d[5mC]*dA*d[5mC]*k[5mC]*kG*k[5mC]) [compound 798727] | 51 | –
799214 (kT*kT*k[5mC]*dT*dT*dG*dT*dT*dT*dA*dT*dA*d[5mC]*kA*k[5mC]*kA; antisense) [compound 799214] | 46 | –
799096 (antisense kA*kA*k[5mC]*d[5mC]*dT*dG*dA*dT*dG*dT*d[5mC]*dA*d[5mC]*k[5mC]*kA*kG) [compound 799096] | – | 30
799445 (antisense k[5mC]*k[5mC]*kT*dA*dA*dT*d[5mC]*dT*d[5mC]*dT*dT*dT*d[5mC]*kA*kT*k[5mC]) [compound 799445] | 28 | –
799029 (kG*kG*kA*dG*dA*dG*dA*d[5mC]*dA*d[5mC]*d[5mC]*dG*d[5mC]*kT*kT*kG; antisense) [compound 799029] | 0 | –

Same assay, conditions: Hep3B cells, electroporation, 10,000 nM antisense oligonucleotide, approximately 24 hours, RTS5062, relative to untreated control cells

Substance | % inhibition of SMAD7 mRNA expression [%]
799535 (kA*kA*k[5mC]*dT*dT*dA*dA*dG*dG*d[5mC]*dA*dT*dA*kT*kA*kA; antisense) [compound 799535] | 42

Same assay, conditions: SMAD7 mRNA, Hep3B cells, 10,000 nM antisense oligonucleotide, electroporation, approximately 24 hours, primer probe set RTS5062, relative to untreated control cells

Substance | % Inhibition [%]
790874 (k[5mC]*k[5mC]*kG*dG*dA*dA*dG*dT*d[5mC]*dT*dT*dG*dT*kA*kT*kT; antisense) [compound 790874] | 0
800858 (antisense kA*kG*k[5mC]*d[5mC]*d[5mC]*dA*dA*d[5mC]*dT*dG*dT*dT*dT*kG*kT*k[5mC]) [compound 800858] | 40
829770 (antisense k[5mC]*kA*kG*dT*d[5mC]*d[5mC]*dA*dG*dG*d[5mC]*dG*dG*d[5mC]*k[5mC]*kG*kG) [compound 829770] | 42
829765 (antisense kG*k[5mC]*k[5mC]*dG*d[5mC]*dT*d[5mC]*d[5mC]*dT*dT*d[5mC]*dA*dG*kT*kT*kT) [compound 829765] | 28
829722 (antisense kA*kT*kG*d[5mC]*dG*d[5mC]*d[5mC]*dA*dG*dT*d[5mC]*dT*d[5mC]*k[5mC]*k[5mC]*kG) [compound 829722] | 38

Same assay, conditions: SMAD7 mRNA, Hep3B cells, electroporation with 10,000 nM antisense oligonucleotide, approximately 24 hours, primer probe set RTS5062, relative to untreated control cells

Substance | % Inhibition [%]
829845 (antisense kT*k[5mC]*k[5mC]*dG*dA*dA*dT*dT*dG*dA*dG*d[5mC]*dT*kG*kT*k[5mC]) [compound 829845] | 40
829898 (antisense kT*kG*kG*d[5mC]*dG*dG*dG*dT*dG*dT*dA*dG*d[5mC]*kA*k[5mC]*kT) [compound 829898] | 31
829852 (antisense kT*k[5mC]*kT*dT*dG*dT*dT*dG*dT*d[5mC]*d[5mC]*dG*dA*kA*kT*kT) [compound 829852] | 33
829860 (antisense kG*kT*k[5mC]*dA*dG*d[5mC]*dT*dG*dG*dA*dT*dG*d[5mC]*k[5mC]*kG*k[5mC]) [compound 829860] | 31
